Reference: EPA's ToxValDB 9.5 (doi:10.2903/j.efsa.2018.5467)
≈ marks a conversion by molar mass, not a printed value.

Tests used:
[1] = test system: Apis mellifera; details: acute, mortality
[2] = test system: Bibionidae; details: chronic/long-term; duration: 28 days; other
[3] = test system: Colinus virginianus; details: for LD50: acute, oral, mortality
[4] = test system: Daphnia magna; details: chronic/long-term; duration: 21 days; other
[5] = test system: Lepomis macrochirus
[6] = test system: Rattus norvegicus
[7] = test system: Tagia sp.; details: chronic/long-term; duration: 56 days; reproduction
[8] = test system: Typhlodromus pyri; details: chronic/long-term; reproduction
[9] = test system: Typhlodromus pyri; test: LR50; higher = less toxic; details: acute; mortality

How did the LD50 ([1]; dermal) turn out when C#CCOC(=O)[C@@H](C)Oc1ccc(Oc2ncc(Cl)cc2F)cc1 [Clodinafop-propargyl] was run?
Its LD50 is greater than 271 µg/piece.

And the LD50 ([1]; oral, unspecified)?
Its LD50 is greater than 104 µg/piece.

And the NOEC [2]?
The NOEC was 1.2 mg/L.

What about the LD50 ([3]; duration: 5 days, diet) of the same compound?
Its LD50 is greater than 1040 mg/kg-day.

What about the LD50 [3] of the same compound?
Its LD50 is 1460 mg/kg-day.

And the NOEC ([3]; reproduction developmental)?
The NOEC was 48.9 mg/kg-day.

And the NOEC [4]?
The NOEC was 0.23 mg/L.

What about the LC50 ([5]; acute, duration: 96 hours, mortality) of the same compound?
Its LC50 is 0.21 µg/mL (≈ 0.6 µM).

What about the NOEC ([5]; chronic/long-term, duration: 33 days, other) of the same compound?
The NOEC was 0.024 mg/L.

And the LD50 ([6]; acute, oral, mortality)?
Its LD50 is greater than 1390 mg/kg-day.

What about the NOAEL ([6]; chronic, duration: 2 years, clinical chemistry) of the same compound?
Its NOAEL is 0.03 mg/kg-day.

And the NOAEL ([6]; developmental, development)?
The NOAEL was 5 mg/kg-day.

And the NOAEL ([6]; reproduction developmental, body weight)?
Its NOAEL is 3.4 mg/kg-day.

And the NOEC [7]?
Its NOEC is 5 mg/kg.

And the NOEC [8]?
Its NOEC is 90 g/ha.

And the LR50 [9]?
Its LR50 is greater than 90 g/ha.
